Experimental data as given in patent publication US20260182568A1, “DISINFECTANT AND PRESERVATIVE COMPOSITIONS” (BJBIOCHEM CO., LTD., priority 2023, published 2026).
≈ marks a conversion by molar mass, not a printed value. Each block holds one compound with its values, some of them ahead of it.

Legend:
[1] = tested on: Malassezia globosa; experiment: Sterilizing power (broth dilution MIC) of anti-dandruff hair care (antifungal) compositions
[2] = tested on: Candida albicans; experiment: Disk diffusion antibacterial test; type: cell-based
[3] = tested on: Pseudomonas aeruginosa; experiment: Disk diffusion antibacterial test; type: cell-based
[4] = tested on: Malassezia furfur; experiment: Sterilizing power (broth dilution MIC) of anti-dandruff hair care (antifungal) compositions
[5] = tested on: Staphylococcus aureus; experiment: Disk diffusion antibacterial test; type: cell-based
[6] = tested on: Escherichia coli; experiment: Disk diffusion antibacterial test; type: cell-based
[7] = tested on: Aspergillus brasiliensis; experiment: Disk diffusion antibacterial test; type: cell-based
[8] = tested on: Malassezia restricta; experiment: Sterilizing power (broth dilution MIC) of anti-dandruff hair care (antifungal) compositions
[9] = tested on: P. aeruginosa; experiment: Broth dilution MIC test of antimicrobial and preservative compositions; type: cell-based, Pseudomonas aeruginosa; details: % only in method b353
Description: (§1) C. albicans was inoculated into Sabouraud dextrose broth and cultured at 25° C. for 24 hours. […] The liquid media used for E. coli, S. aureus, and P. aeruginosa (bacteria) were tryptic soy broth, and the liquid media used for C. albicans, and A. brasiliensis (fungi) were Sabouraud dextrose broth.

[10] = tested on: E. coli; experiment: as above; type: cell-based, Escherichia coli; details: % only in method b353
Description: as §1

[11] = tested on: S. aureus; experiment: as above; type: cell-based, Staphylococcus aureus; details: % only in method b353
Description: as §1

[12] = tested on: C. albicans; experiment: as above; type: cell-based, Candida albicans; details: % only in method b353
Description: as §1

[13] = tested on: A. brasiliensis; experiment: as above; type: cell-based, Aspergillus brasiliensis; details: % only in method b353
Description: as §1

[14] = comparison over mixing ratios of Formula 1 with PO, ZPT or CB
[15] = Test A (Formula 1 / Formula 2), Tables 2-3
[16] = Test B (Formula 1 / Formula 3), Tables 16-17
[17] = Formula 1 mixed with climbazole (CB) at mixing ratio (%), broth dilution
[18] = Formula 1 mixed with zinc pyrithione (ZPT) at mixing ratio (%), broth dilution

Compound: CCCCCCCCCCCCN(CC(O)CO)CC(O)CO (stereo not drawn) [3,3′-(dodecylimino)bispropane-1,2-diol]
sterilizing effect against Malassezia globosa (in words) [1, 14]: lowest sterilizing effect | clear zone where strain growth was inhibited, C. albicans ([2]; 50 μl on disk, 1st repetition): 5 mm | clear zone where strain growth was inhibited, C. albicans ([2]; 50 μl on disk, 2nd repetition): 5 mm | clear zone where strain growth was inhibited, C. albicans ([2]; 50 μl on disk, 3rd repetition): 6 mm | clear zone where strain growth was inhibited, C. albicans ([2]; Mean of three repetitions): 5.3 mm | clear zone where strain growth was inhibited, P. aeruginosa ([3]; 50 μl on disk, 1st repetition): 1 mm | clear zone where strain growth was inhibited, P. aeruginosa ([3]; 50 μl on disk, 2nd repetition): 1.5 mm | clear zone where strain growth was inhibited, P. aeruginosa ([3]; 50 μl on disk, 3rd repetition): 1 mm | clear zone where strain growth was inhibited, P. aeruginosa ([3]; Mean of three repetitions): 1.2 mm | sterilizing effect against Malassezia furfur (in words) [4, 14]: lowest sterilizing effect | clear zone where strain growth was inhibited, S. aureus ([5]; 50 μl on disk, 1st repetition): 2 mm | clear zone where strain growth was inhibited, S. aureus ([5]; 50 μl on disk, 2nd repetition): 3 mm | clear zone where strain growth was inhibited, S. aureus ([5]; 50 μl on disk, 3rd repetition): 2.5 mm | clear zone where strain growth was inhibited, S. aureus ([5]; Mean of three repetitions): 2.5 mm | clear zone where strain growth was inhibited, E. coli ([6]; 50 μl on disk, 1st repetition): 2.5 mm | clear zone where strain growth was inhibited, E. coli ([6]; 50 μl on disk, 2nd repetition): 2.5 mm | clear zone where strain growth was inhibited, E. coli ([6]; 50 μl on disk, 3rd repetition): 3 mm | clear zone where strain growth was inhibited, E. coli ([6]; Mean of three repetitions): 2.6 mm | clear zone where strain growth was inhibited, A. brasiliensis ([7]; 50 μl on disk, 1st repetition): 1.5 mm | clear zone where strain growth was inhibited, A. brasiliensis ([7]; 50 μl on disk, 2nd repetition): 2 mm | clear zone where strain growth was inhibited, A. brasiliensis ([7]; 50 μl on disk, 3rd repetition): 2 mm | clear zone where strain growth was inhibited, A. brasiliensis ([7]; Mean of three repetitions): 1.8 mm | sterilizing effect against Malassezia restricta (in words) [8, 14]: lowest sterilizing effect

minimum inhibitory concentration (MIC), P. Aeruginosa [9, 15]: 0.25% | minimum inhibitory concentration (MIC), P. Aeruginosa [9, 16]: 0.25% | minimum inhibitory concentration (MIC), E. coli [10, 15]: 0.1% | minimum inhibitory concentration (MIC), E. coli [10, 16]: 0.1% | minimum inhibitory concentration (MIC), S. Aureus [11, 15]: 0.1% | minimum inhibitory concentration (MIC), S. Aureus [11, 16]: 0.1% | minimum inhibitory concentration (MIC), C. albicans [12, 15]: 0.05% | minimum inhibitory concentration (MIC), C. albicans [12, 16]: 0.05% | minimum inhibitory concentration (MIC), A. brasiliensis [13, 15]: 0.1% | minimum inhibitory concentration (MIC), A. brasiliensis [13, 16]: 0.1%
Compound: CCCCCCCCCCCCN(CC(O)CO)CC(O)CO (stereo not drawn) [Comparative Example1, 3,3′-(dodecylimino)bispropane-1,2-diol]

Compound: CC(C)(C)C(=O)C(Oc1ccc(Cl)cc1)n1ccnc1 (stereo not drawn) [climbazole]
MIC [1, 17]: 1 µg/mL | MIC [4, 17]: 20 µg/mL | MIC [8, 17]: 4 µg/mL

MIC ([1]; Malassezia globosa): 4 µg/mL (≈ 16.9 µM) | MIC ([4]; Malassezia furfur): 30 µg/mL (≈ 126 µM) | MIC ([8]; Malassezia restricta): 18 µg/mL (≈ 75.8 µM)
Compound: Cc1cc(CC(C)CC(C)(C)C)n(O)c(=O)c1 (stereo not drawn) [piroctone olamine]

Compound: zinc pyrithione
MIC [1, 18]: 1 µg/mL | MIC [4, 18]: 7 µg/mL | MIC [8, 18]: 4 µg/mL
